For assay [1], the system named is Human acute T lymphocytic leukemia cells (Molt-4). Nature of the assay: Tumor cell proliferation inhibition (CellTiter-Meiluncell Luminescent Cell Viability Assay), Molt-4. To be noted: MOLT-4, 96 h, read-out: inhibitory activity (IC50, nM) against tumor cells proliferation, Molt 4.
Another assay addresses T1, CK1α (Homo sapiens, UniProt P48729+Q96SW2).
T1 construct: endogenous in cells; host or cells: hPBMCs (Milecell Biotechnologies)
Nature of the assay: Western-blot assay of substrate protein degradation in hPBMCs, CK1α. Format: cell-based. To be noted: 24 hours of compound treatment, compounds tested at 50 nM and 500 nM (concentration of the table not stated).

Another assay has as its system NCI-H1975. Nature of the assay: Tumor cell proliferation inhibition (CellTiter-Meiluncell Luminescent Cell Viability Assay), NCI-H1975. To be noted: Homo sapiens, NCI-H1975, 96 h, read-out: inhibitory activity (IC50, nM) against tumor cells proliferation, H1975.
The test system of assay [2] is Human breast cancer cells (MDA-MB-231). Nature of the assay: Tumor cell proliferation inhibition (CellTiter-Meiluncell Luminescent Cell Viability Assay), MDA-MB-231. To be noted: MDA-MB-231, 96 h, read-out: inhibitory activity (IC50, nM) against tumor cells proliferation, MDA-MB-231.
Another assay deals with T2, IKZF2 (Homo sapiens, UniProt Q96SW2+Q9UKS7).
T2 construct: endogenous in cells; host or cells: hPBMCs (Milecell Biotechnologies)
T2 sequence (Q9UKS7 whole entry): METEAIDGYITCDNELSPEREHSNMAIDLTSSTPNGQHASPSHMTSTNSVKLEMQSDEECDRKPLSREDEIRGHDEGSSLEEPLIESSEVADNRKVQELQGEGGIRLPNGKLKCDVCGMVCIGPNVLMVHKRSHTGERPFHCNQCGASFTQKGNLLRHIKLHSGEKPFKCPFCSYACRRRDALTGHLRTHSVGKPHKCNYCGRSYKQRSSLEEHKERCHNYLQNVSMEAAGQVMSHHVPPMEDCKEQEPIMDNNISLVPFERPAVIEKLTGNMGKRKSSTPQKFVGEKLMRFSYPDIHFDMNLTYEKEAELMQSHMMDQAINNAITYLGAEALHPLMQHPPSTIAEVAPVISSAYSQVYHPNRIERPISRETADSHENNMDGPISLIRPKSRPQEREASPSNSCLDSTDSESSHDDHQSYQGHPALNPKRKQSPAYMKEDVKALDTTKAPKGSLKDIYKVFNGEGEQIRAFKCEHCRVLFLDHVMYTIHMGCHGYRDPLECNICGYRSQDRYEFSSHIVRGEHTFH
T2 sequence (Q96SW2 whole entry): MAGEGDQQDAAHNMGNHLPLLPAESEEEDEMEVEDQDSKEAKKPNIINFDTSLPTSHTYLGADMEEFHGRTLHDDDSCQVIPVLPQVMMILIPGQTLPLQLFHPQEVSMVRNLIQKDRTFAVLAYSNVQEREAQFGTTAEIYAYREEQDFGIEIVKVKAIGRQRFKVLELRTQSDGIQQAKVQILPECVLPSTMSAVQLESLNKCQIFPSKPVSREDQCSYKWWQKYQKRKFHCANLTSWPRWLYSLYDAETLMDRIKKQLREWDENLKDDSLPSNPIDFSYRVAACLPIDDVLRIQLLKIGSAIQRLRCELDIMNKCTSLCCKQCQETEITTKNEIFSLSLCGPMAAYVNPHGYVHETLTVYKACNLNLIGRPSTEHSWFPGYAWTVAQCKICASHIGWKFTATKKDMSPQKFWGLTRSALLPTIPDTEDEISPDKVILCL
T2 sequence (Q16531 whole entry partner): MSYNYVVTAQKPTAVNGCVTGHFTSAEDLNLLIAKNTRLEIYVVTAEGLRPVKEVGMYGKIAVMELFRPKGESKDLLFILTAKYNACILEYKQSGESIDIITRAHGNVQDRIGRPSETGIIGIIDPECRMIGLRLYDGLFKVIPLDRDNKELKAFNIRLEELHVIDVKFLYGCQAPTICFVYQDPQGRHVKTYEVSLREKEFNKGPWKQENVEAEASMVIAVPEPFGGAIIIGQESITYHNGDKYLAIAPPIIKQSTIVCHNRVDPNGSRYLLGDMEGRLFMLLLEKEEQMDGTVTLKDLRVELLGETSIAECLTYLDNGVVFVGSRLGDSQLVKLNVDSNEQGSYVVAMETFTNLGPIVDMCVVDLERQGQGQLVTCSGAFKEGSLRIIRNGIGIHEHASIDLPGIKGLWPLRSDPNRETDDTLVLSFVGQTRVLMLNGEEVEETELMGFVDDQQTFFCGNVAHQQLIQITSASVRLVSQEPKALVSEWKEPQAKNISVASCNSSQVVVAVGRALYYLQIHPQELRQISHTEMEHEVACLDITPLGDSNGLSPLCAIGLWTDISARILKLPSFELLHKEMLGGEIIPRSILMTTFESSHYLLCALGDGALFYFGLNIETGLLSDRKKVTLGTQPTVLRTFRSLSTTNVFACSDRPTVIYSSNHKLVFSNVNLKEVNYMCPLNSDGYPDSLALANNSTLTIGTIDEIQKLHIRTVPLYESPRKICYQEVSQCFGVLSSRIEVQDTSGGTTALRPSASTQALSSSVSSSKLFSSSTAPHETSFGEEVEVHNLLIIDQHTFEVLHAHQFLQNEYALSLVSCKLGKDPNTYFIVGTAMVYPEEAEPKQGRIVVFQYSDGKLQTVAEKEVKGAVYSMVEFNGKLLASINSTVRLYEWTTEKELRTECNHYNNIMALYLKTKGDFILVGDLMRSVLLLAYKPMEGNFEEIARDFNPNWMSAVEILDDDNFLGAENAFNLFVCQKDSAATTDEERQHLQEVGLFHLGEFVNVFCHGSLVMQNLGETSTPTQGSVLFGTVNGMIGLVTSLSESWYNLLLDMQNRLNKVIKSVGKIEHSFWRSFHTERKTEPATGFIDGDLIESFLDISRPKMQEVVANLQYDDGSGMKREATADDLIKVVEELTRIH
The assay can be described thus: Western-blot assay of substrate protein degradation in hPBMCs, IKZF2. Format: cell-based. To be noted: 24 hours of compound treatment, compounds tested at 50 nM and 500 nM (concentration of the table not stated).

Assay [3] concerns the target T3, human Cereblon WT GST-tagged protein (Homo sapiens, UniProt Q96SW2).
T3 construct: purchased CISBIO 64BDCRBNPEH
Nature of the assay: CRBN-binding affinity by HTRF (CEREBLON BINDING kit). To be noted: HTRF inhibitory activity, CEREBLON BINDING kit; read-out: HTRF IC50. Background: In TR-FRET formats the signal depends on donor and acceptor labels being close together.

For another assay, the target named is T4, GSPT1 (Homo sapiens, UniProt P15170+Q96SW2).
T4 construct: endogenous in cells; host or cells: hPBMCs (Milecell Biotechnologies)
T4 sequence (P15170 whole entry): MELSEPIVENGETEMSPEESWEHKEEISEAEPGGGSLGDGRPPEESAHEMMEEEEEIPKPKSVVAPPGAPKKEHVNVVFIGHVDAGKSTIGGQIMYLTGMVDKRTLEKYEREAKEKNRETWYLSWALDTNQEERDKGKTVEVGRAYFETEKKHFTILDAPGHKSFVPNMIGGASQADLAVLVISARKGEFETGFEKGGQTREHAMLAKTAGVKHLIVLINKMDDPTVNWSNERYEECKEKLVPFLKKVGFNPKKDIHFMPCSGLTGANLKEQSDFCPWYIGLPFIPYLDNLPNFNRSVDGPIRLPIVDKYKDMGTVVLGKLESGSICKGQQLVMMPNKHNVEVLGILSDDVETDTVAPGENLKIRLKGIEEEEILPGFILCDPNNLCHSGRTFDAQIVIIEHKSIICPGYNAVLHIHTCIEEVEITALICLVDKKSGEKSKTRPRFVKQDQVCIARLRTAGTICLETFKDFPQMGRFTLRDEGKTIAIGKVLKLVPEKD
T4 sequence (Q96SW2 whole entry): as the sequence (Q96SW2 whole entry) above
T4 sequence (Q16531 whole entry partner): as the sequence (Q16531 whole entry partner) above
The assay can be described thus: Western-blot assay of substrate protein degradation in hPBMCs, GSPT1. It is filed as cell-based. To be noted: 24 hours of compound treatment, compounds tested at 50 nM and 500 nM (concentration of the table not stated).

A further assay has as its target T5, WEE1 (Homo sapiens, UniProt P30291+Q96SW2).
T5 construct: endogenous in cells; host or cells: hPBMCs (Milecell Biotechnologies)
Nature of the assay: Western-blot assay of substrate protein degradation in hPBMCs, WEE1. It is filed as cell-based. To be noted: 24 hours of compound treatment, compounds tested at 50 nM and 500 nM (concentration of the table not stated).

The next assay has as its target T6, IKZF3 (Homo sapiens, UniProt Q96SW2+Q9UKT9).
T6 construct: endogenous in cells; host or cells: hPBMCs (Milecell Biotechnologies)
Nature of the assay: Western-blot assay of substrate protein degradation in hPBMCs, IKZF3. Format: cell-based. To be noted: 24 hours of compound treatment, compounds tested at 50 nM and 500 nM (concentration of the table not stated).

The subject of another assay is TMD8. The assay can be described thus: Tumor cell proliferation inhibition (CellTiter-Meiluncell Luminescent Cell Viability Assay), TMD8. To be noted: Homo sapiens, TMD8, 96 h, read-out: inhibitory activity (IC50, nM) against tumor cells proliferation, TMD8.
The target of the next assay is T7, IKZF1 (Homo sapiens, UniProt Q13422+Q96SW2).
T7 construct: endogenous in cells; host or cells: hPBMCs (Milecell Biotechnologies)
T7 sequence (Q13422 whole entry): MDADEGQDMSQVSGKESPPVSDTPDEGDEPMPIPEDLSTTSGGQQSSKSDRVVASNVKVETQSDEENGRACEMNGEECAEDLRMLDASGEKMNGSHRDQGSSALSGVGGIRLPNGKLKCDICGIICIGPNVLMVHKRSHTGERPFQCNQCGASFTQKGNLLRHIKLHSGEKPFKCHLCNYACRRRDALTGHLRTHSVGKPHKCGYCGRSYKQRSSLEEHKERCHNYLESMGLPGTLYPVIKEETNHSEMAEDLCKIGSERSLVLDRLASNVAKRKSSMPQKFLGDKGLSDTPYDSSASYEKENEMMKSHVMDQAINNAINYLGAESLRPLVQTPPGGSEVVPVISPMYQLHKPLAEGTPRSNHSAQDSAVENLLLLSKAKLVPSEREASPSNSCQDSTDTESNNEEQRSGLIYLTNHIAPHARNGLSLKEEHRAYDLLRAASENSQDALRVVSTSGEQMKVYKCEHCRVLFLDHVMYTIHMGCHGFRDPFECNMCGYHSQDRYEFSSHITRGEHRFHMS
T7 sequence (Q96SW2 whole entry): as the sequence (Q96SW2 whole entry) above
T7 sequence (Q16531 whole entry partner): as the sequence (Q16531 whole entry partner) above
Nature of the assay: Western-blot assay of substrate protein degradation in hPBMCs, IKZF1. Format: cell-based. To be noted: 24 hours of compound treatment, compounds tested at 50 nM and 500 nM (concentration of the table not stated).

Some results are limits rather than exact numbers.

T5 sequence (P30291 whole entry): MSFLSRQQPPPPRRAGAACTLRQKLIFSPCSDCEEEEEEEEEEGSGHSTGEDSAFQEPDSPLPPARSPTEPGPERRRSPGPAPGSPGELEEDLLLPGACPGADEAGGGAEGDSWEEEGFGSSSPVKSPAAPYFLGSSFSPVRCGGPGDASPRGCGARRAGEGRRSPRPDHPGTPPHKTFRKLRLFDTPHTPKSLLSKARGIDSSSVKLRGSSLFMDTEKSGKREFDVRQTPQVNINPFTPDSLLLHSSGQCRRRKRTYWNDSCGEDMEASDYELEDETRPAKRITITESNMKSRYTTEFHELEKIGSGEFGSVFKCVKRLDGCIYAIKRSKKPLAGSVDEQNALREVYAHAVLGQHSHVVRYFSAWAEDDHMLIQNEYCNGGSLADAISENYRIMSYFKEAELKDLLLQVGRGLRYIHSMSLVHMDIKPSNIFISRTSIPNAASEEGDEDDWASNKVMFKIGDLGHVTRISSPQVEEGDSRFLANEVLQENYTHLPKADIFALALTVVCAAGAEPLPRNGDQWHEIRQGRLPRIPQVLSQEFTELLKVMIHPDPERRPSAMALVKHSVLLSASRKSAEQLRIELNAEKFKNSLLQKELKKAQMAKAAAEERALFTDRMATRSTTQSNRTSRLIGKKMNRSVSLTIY
T5 sequence (Q96SW2 whole entry): as the sequence (Q96SW2 whole entry) above
T5 sequence (Q16531 whole entry partner): as the sequence (Q16531 whole entry partner) above
T3 sequence (Q96SW2 whole entry): as the sequence (Q96SW2 whole entry) above
T1 sequence (P48729 whole entry): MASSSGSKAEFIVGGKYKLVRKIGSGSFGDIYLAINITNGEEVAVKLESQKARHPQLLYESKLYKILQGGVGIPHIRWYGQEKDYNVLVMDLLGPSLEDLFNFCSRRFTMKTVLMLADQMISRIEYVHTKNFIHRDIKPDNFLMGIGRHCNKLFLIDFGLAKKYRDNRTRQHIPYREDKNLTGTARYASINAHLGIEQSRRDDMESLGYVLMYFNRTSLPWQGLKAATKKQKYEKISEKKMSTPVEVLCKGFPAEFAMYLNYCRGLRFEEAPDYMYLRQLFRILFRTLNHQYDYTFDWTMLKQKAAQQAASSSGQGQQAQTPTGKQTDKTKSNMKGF
T1 sequence (Q96SW2 whole entry): as the sequence (Q96SW2 whole entry) above
T1 sequence (Q16531 whole entry partner): as the sequence (Q16531 whole entry partner) above

As to `Cc1cc(C2CCN(Cc3ccc4c(c3)CN(C3CCC(=O)NC3=O)C4=O)CC2)cs1` (stereo not shown) [GT-04588, 3-(5-((4-(5-methylthiophen-3-yl)piperidin-1-yl)methyl)-1-oxoisoindolin-2-yl)piperidine-2,6-dione], the IC50 in assay [1] was 5 to 10 nM; in the assay with NCI-H1975, 50 to 100 nM; in assay [2], 10 to 50 nM; in assay [3], 1000 to 1500 nM; in the assay with TMD8, 100 to 500 nM. Also, the “CK1a substrate protein remaining %” value on CK1α is “B (80%< substrate protein remaining %≤ 100%)”. In addition, on IKZF2, the “IKZF2 substrate protein remaining %” value is reported as “A (0% ≤ substrate protein remaining % ≤ 80%)”. Further, the “GSPT1 substrate protein remaining %” value at GSPT1 is given as “A (0% ≤ substrate protein remaining % ≤ 80%)”. The “Weel substrate protein remaining %” value at WEE1 was “B (80%< substrate protein remaining %≤ 100%)”. Moreover, at IKZF3, the “IKZF3 substrate protein remaining %” value is given as “B (80%< substrate protein remaining %≤ 100%)”. The “IKZF 1 substrate protein remaining %” value at IKZF1 is on record as “B (80%< substrate protein remaining %≤ 100%)”.

On to `O=C1CCC(N2Cc3cc(CN4CC=C(c5ccoc5)CC4)ccc3C2=O)C(=O)N1` (stereo not shown) [GT-04589, 3-(5-((4-(furan-3-yl)-3,6-dihydropyridin-1(2H)-yl)methyl)-1-oxoisoindolin-2-yl)piperidine-2,6-dione], for which the IC50 in assay [1] is 10 to 50 nM; with NCI-H1975, 100 to 500 nM; in assay [2] it was 100 to 500 nM; in [3] it was less than 500 nM; in the assay on TMD8, 500 to 1000 nM. Also, the “CK1a substrate protein remaining %” value at CK1α is on record as “B (80%< substrate protein remaining %≤ 100%)”. Further, the “IKZF2 substrate protein remaining %” value at IKZF2 was “A (0% ≤ substrate protein remaining % ≤ 80%)”. In addition, on GSPT1, the “GSPT1 substrate protein remaining %” value is reported as “A (0% ≤ substrate protein remaining % ≤ 80%)”. Further, the “Weel substrate protein remaining %” value at WEE1 is “B (80%< substrate protein remaining %≤ 100%)”. Further, on IKZF3, the “IKZF3 substrate protein remaining %” value is reported as “B (80%< substrate protein remaining %≤ 100%)”. The “IKZF 1 substrate protein remaining %” value on IKZF1 is “B (80%< substrate protein remaining %≤ 100%)”.

For `O=C1CCC(N2Cc3cc(CN4CC=C(c5c[nH]c6ncccc56)CC4)ccc3C2=O)C(=O)N1` (stereo not shown) [GT-04602, 3-(5-((4-(1H-pyrrolo[2,3-b]pyridin-3-yl)-3,6-dihydropyridin-1(2H)-yl)methyl)-1-oxoisoindolin-2-yl)piperidine-2,6-dione], the IC50 in assay [1] was 1 to 5 nM; in the assay with NCI-H1975, 10 to 50 nM; in [2], 10 to 50 nM; in [3] it was less than 500 nM; in the assay on TMD8 it was 10 to 50 nM. In addition, the “CK1a substrate protein remaining %” value at CK1α is recorded as “A (0% ≤ substrate protein remaining % ≤ 80%)”. The “IKZF2 substrate protein remaining %” value on IKZF2 is on record as “A (0% ≤ substrate protein remaining % ≤ 80%)”. In addition, the “GSPT1 substrate protein remaining %” value on GSPT1 is “A (0% ≤ substrate protein remaining % ≤ 80%)”. In addition, the “Weel substrate protein remaining %” value at WEE1 is reported as “A (0% ≤ substrate protein remaining % ≤ 80%)”. For the same compound, on IKZF3, the “IKZF3 substrate protein remaining %” value is on record as “A (0% ≤ substrate protein remaining % ≤ 80%)”. Further, on IKZF1, the “IKZF 1 substrate protein remaining %” value is on record as “A (0% ≤ substrate protein remaining % ≤ 80%)”.

`O=C1CCC(N2Cc3cc(CN4CCN(c5cc(Cl)cc(Cl)c5)CC4)ccc3C2=O)C(=O)N1` (stereo not shown) [GT-04614, 3-(5-((4-(3,5-dichlorophenyl)piperazin-1-yl)methyl)-1-oxoisoindolin-2-yl)piperidine-2,6-dione]: the IC50 was in the range of 1 to 5 nM in assay [1]; 10 to 50 nM in the assay with NCI-H1975; 10 to 50 nM in assay [2]; 500 to 1000 nM in [3]; 10 to 50 nM in the assay with TMD8. Also, the “CK1a substrate protein remaining %” value on CK1α was “B (80%< substrate protein remaining %≤ 100%)”. The “IKZF2 substrate protein remaining %” value at IKZF2 was “B (80%< substrate protein remaining %≤ 100%)”. For the same compound, the “GSPT1 substrate protein remaining %” value on GSPT1 is “A (0% ≤ substrate protein remaining % ≤ 80%)”. For the same compound, the “Weel substrate protein remaining %” value at WEE1 is listed as “A (0% ≤ substrate protein remaining % ≤ 80%)”. Moreover, the “IKZF3 substrate protein remaining %” value at IKZF3 is given as “B (80%< substrate protein remaining %≤ 100%)”. In addition, the “IKZF 1 substrate protein remaining %” value at IKZF1 is “B (80%< substrate protein remaining %≤ 100%)”.

Regarding `O=C1CCC(N2Cc3cc(CN4CCN(c5nccc(Cl)c5Br)CC4)ccc3C2=O)C(=O)N1` (stereo not shown) [GT-04615, 3-(5-((4-(3-bromo-4-chloropyridin-2-yl)piperazin-1-yl)methyl)-1-oxoisoindolin-2-yl)piperidine-2,6-dione], the IC50 in assay [1] was 10 to 50 nM; with NCI-H1975 it was 100 to 500 nM; in assay [2], 100 to 500 nM; in assay [3], 500 to 1000 nM; in the assay on TMD8, 500 to 1000 nM. The “CK1a substrate protein remaining %” value on CK1α is reported as “A (0% ≤ substrate protein remaining % ≤ 80%)”. For the same compound, the “IKZF2 substrate protein remaining %” value on IKZF2 was “A (0% ≤ substrate protein remaining % ≤ 80%)”. The “GSPT1 substrate protein remaining %” value at GSPT1 was “A (0% ≤ substrate protein remaining % ≤ 80%)”. For the same compound, at WEE1, the “Weel substrate protein remaining %” value is listed as “A (0% ≤ substrate protein remaining % ≤ 80%)”. On IKZF3, the “IKZF3 substrate protein remaining %” value is recorded as “A (0% ≤ substrate protein remaining % ≤ 80%)”. Also, the “IKZF 1 substrate protein remaining %” value on IKZF1 is “A (0% ≤ substrate protein remaining % ≤ 80%)”.

As for `O=C1CCC(N2Cc3cc(CN4CC=C(c5ccco5)CC4)ccc3C2=O)C(=O)N1` (stereo not shown) [GT-04617, 3-(5-((4-(furan-2-yl)-3,6-dihydropyridin-1(2H)-yl)methyl)-1-oxoisoindolin-2-yl)piperidine-2,6-dione], the IC50 in assay [1] is 5 to 10 nM; in the assay on NCI-H1975 it was 100 to 500 nM; in [2], 10 to 50 nM; in assay [3], less than 500 nM; with TMD8, 100 to 500 nM. At CK1α, the “CK1a substrate protein remaining %” value is reported as “B (80%< substrate protein remaining %≤ 100%)”. Also, the “IKZF2 substrate protein remaining %” value on IKZF2 is reported as “A (0% ≤ substrate protein remaining % ≤ 80%)”. For the same compound, the “GSPT1 substrate protein remaining %” value at GSPT1 is “A (0% ≤ substrate protein remaining % ≤ 80%)”. Also, on WEE1, the “Weel substrate protein remaining %” value is “A (0% ≤ substrate protein remaining % ≤ 80%)”. Besides, the “IKZF3 substrate protein remaining %” value on IKZF3 was “A (0% ≤ substrate protein remaining % ≤ 80%)”. Further, the “IKZF 1 substrate protein remaining %” value on IKZF1 is given as “A (0% ≤ substrate protein remaining % ≤ 80%)”.

For the compound `O=C1CCC(N2Cc3cc(CN4CC=C(c5cncc(Cl)c5)CC4)ccc3C2=O)C(=O)N1` (stereo not shown) [GT-04620, 3-(5-((5-chloro-3',6'-dihydro-[3,4'-bipyridin]-1'(2'H)-yl)methyl)-1-oxoisoindolin-2-yl)piperidine-2,6-dione], the IC50 is 1 to 5 nM in assay [1]; 10 to 50 nM with NCI-H1975; 10 to 50 nM in assay [2]; 500 to 1000 nM in assay [3]; 10 to 50 nM in the assay with TMD8. In addition, the “CK1a substrate protein remaining %” value at CK1α is recorded as “B (80%< substrate protein remaining %≤ 100%)”. Further, the “IKZF2 substrate protein remaining %” value on IKZF2 is on record as “A (0% ≤ substrate protein remaining % ≤ 80%)”. At GSPT1, the “GSPT1 substrate protein remaining %” value is reported as “A (0% ≤ substrate protein remaining % ≤ 80%)”. In addition, at WEE1, the “Weel substrate protein remaining %” value is listed as “A (0% ≤ substrate protein remaining % ≤ 80%)”. Moreover, at IKZF3, the “IKZF3 substrate protein remaining %” value is reported as “A (0% ≤ substrate protein remaining % ≤ 80%)”. In addition, the “IKZF 1 substrate protein remaining %” value at IKZF1 is reported as “A (0% ≤ substrate protein remaining % ≤ 80%)”.

For the compound `O=C1CCC(N2Cc3cc(CN4CCC(N5CCc6cc(F)ccc65)CC4)ccc3C2=O)C(=O)N1` (stereo not shown) [GT-04650, 3-(5-((4-(5-fluoroindolin-1-yl)piperidin-1-yl)methyl)-1-oxoisoindolin-2-yl)piperidine-2,6-dione], the IC50 in assay [1] is 10 to 50 nM; in the assay with NCI-H1975, 50 to 100 nM; in [2], 50 to 100 nM; in [3], less than 500 nM; with TMD8, 100 to 500 nM. The “CK1a substrate protein remaining %” value at CK1α is given as “B (80%< substrate protein remaining %≤ 100%)”. Besides, the “IKZF2 substrate protein remaining %” value at IKZF2 is on record as “A (0% ≤ substrate protein remaining % ≤ 80%)”. For the same compound, at GSPT1, the “GSPT1 substrate protein remaining %” value is listed as “A (0% ≤ substrate protein remaining % ≤ 80%)”. Also, the “Weel substrate protein remaining %” value at WEE1 is on record as “A (0% ≤ substrate protein remaining % ≤ 80%)”. Further, the “IKZF3 substrate protein remaining %” value at IKZF3 is “A (0% ≤ substrate protein remaining % ≤ 80%)”. For the same compound, the “IKZF 1 substrate protein remaining %” value on IKZF1 is “A (0% ≤ substrate protein remaining % ≤ 80%)”.

The values are drawn from patent EP4745137A1 (Gluetacs Therapeutics (Shanghai) Co., Ltd., priority 2023, dated 2025).
